For three compounds, AC50 and IC50 results are on record in ChEMBL document CHEMBL1201862, “PubChem BioAssay data set” (2004).

Active and inactive are the calls of the source.

The term AC50 denotes the concentration giving half of the maximal activity seen.

Experiment [1] has as its target Cytochrome P450 3A4 (Homo sapiens, UniProt P08684).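 Also: CYP3A4 tested as one member of a cytochrome P450 panel screen.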
In experiment [2] the target is Cytochrome P450 2C9 (Homo sapiens, UniProt P11712).
The target in experiment [3] is T1, DNA repair and recombination protein RAD54-like (Homo sapiens, UniProt Q92698).
T1 sequence (Q92698 whole entry): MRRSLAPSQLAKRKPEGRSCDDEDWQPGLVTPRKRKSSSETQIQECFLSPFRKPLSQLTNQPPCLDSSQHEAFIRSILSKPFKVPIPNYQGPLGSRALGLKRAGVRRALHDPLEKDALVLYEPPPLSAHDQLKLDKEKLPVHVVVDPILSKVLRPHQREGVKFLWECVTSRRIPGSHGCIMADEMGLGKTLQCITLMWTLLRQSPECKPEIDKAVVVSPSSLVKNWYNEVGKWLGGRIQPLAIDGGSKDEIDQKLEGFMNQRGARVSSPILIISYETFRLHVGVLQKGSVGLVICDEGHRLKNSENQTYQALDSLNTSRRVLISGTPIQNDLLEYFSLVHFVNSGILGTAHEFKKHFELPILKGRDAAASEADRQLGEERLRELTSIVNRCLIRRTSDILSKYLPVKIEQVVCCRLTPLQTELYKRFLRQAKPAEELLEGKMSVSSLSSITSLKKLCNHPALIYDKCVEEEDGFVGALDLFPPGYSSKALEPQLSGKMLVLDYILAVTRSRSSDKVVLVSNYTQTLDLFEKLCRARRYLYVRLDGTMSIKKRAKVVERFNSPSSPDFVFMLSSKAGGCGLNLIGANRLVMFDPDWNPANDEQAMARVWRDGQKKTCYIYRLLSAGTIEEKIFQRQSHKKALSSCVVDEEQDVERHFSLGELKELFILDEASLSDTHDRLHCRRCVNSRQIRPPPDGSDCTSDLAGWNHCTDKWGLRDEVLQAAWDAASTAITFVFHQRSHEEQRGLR
In words: RAD54 Holliday junction migration blockers – biochemical, fluorescence, cherry-picked samples, dose series, confirmation (AID 651657). It is filed as functional.

For experiment [4], the target named is Small ubiquitin-related modifier 1 (Homo sapiens, UniProt P63165). The experiment in a line: SUMO1 protein interaction blockers, potency – biochemical, fluorescence polarization, uHTS hits, dose response (AID 624382). It is filed as functional. The note with it: read-out: IC50_Mean. Background: In fluorescence polarisation assays a small probe gives low polarisation when free and higher when bound to something large.
Sequence of Small ubiquitin-related modifier 1 (P63165 whole entry): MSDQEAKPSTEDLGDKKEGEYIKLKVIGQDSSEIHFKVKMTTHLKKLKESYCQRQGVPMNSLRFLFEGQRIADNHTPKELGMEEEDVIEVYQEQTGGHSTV

Sequence of Cytochrome P450 2C9 (P11712 whole entry): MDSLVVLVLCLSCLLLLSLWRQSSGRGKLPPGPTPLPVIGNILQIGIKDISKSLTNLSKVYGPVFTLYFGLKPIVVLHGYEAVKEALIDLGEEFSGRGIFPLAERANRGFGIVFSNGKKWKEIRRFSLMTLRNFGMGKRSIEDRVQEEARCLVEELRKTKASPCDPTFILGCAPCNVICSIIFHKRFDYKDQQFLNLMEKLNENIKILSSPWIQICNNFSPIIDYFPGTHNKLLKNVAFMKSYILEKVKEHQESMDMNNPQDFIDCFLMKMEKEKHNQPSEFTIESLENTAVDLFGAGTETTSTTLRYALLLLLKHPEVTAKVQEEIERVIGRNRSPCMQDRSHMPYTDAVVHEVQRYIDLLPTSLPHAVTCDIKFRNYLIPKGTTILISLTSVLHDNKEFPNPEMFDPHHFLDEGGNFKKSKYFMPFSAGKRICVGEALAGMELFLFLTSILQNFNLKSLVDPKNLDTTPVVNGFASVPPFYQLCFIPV
Sequence of Cytochrome P450 3A4 (P08684 whole entry): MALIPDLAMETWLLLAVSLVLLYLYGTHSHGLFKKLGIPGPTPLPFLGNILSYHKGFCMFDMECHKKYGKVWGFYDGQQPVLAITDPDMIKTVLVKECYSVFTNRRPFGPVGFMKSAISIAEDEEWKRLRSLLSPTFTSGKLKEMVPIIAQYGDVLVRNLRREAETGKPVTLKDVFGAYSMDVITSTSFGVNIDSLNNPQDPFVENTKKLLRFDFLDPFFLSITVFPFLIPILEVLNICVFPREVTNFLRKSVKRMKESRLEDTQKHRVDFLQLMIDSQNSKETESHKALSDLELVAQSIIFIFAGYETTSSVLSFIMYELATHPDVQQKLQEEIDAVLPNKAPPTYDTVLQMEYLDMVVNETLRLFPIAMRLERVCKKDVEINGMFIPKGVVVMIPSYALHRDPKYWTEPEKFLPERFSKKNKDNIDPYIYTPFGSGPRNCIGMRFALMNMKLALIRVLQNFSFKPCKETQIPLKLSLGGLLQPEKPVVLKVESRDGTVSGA

Take `CCCCCCCCCCn1c2c(c(=N)c3c1CCC3)CCC2`: the AC50 in experiment [1] was 31.6 µM (inconclusive); in experiment [2], 20 µM (inconclusive).

Consider `Cn1nc(-c2ccccn2)nc2c(=O)n(C)c(=O)nc1-2`, for which the concentration at half-maximal activity (AC50) in experiment [3] is 1.22 µM (active). Turning to `COc1ccc(NS(=O)(=O)c2ccc3c(c2)[C@H]2C=CC[C@H]2[C@@H](c2ccc(C(=O)O)cc2)N3)cc1`, the IC50 in experiment [4] is 4.98 µM (active).
